Converted amounts (≈) assume the structure as drawn. Non-standard residues stand in square brackets, D forms with d. Residues, ends and D or L forms follow the SMILES beside them. *: point of attachment. Decanoyl = CCCCCCCCCC(=O)*
Tests used:
Assay type in all cases: cell-based
[1] = tested on: clinical strains of S. aureus, including USA200, USA400, Newman, and Mu50
How it was run: (§1)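 Broth microdilution per CLSI M07-A10 with minor changes: 2-fold peptide dilutions plus log-phase bacteria (OD600 ~0.5) diluted to 0.001 OD, in TSB. Incubated overnight at 37 °C; growth read at 630 nm.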

P. aeruginosa PAO1 = tested on: P. aeruginosa PAO1
How it was run: as §1

S. aureus USA300 = assay: Bacterial membrane depolarization (DiBAC4(3)); settings: 3.1, 6.25, 12.5, and 25 μM; 40 minutes
Description: The experiment was conducted as described (Marks, et al. (2013) PLOS One 8:e63158). In brief, an overnight culture of S. aureus USA300 was subcultured in a fresh TSB medium and grown to the exponential phase. Cells were spun using centrifugation, washed 2× with PBS, resuspended in twice the volume of PBS containing 25 mM glucose, and incubated at 37° C. for 15 minute. For membrane depolarization measurements, 500 nM (final concentration) of the dye DiBAC4 (3) bis(1,3-dibutylbarbituric acid) trimethine oxonol (ANASPEC, CA) was added, and the reaction mixture was vortexed gently. Aliquots of 90 μL of the energized bacteria solution were loaded to the wells, and the plate was fed into a FLUOstar® Omega microplate reader. Fluorescence was read for 20 minutes at excitation and emission wavelengths of 485 and 520 nm, respectively, to get dye normalization. Then, 10 μL of the peptide solution was added and gently mixed. Fluorescence readings were recorded for 40 minutes, where Triton™ X-100 (0.1%) was used as a positive control.

[2] = tested on: S. aureus USA300 transposon mutant SAUSA300_1898; assay: Antimicrobial susceptibility of transposon mutant; parameters: key: No = no MIC changes of C10-KR8d against the WT and the mutant S. aureus strains measured in 50% TSB; settings: mutant SAUSA300_1898 versus WT
Description: (§2) The antimicrobial susceptibility of over 20 MRSA transposon mutants were also tested, based on a transposon library screening, in the presence of LL-37 peptides (Golla, et al. (2020) ACS Infect. Dis., 6:1866-1881). This Nebraska Transposon Mutant Library of S. aureus USA300 consists of 1920 mutants, each with one nonessential gene disabled due to a transposon insertion (Fey, et al. (2013) mBio 4:e00537-12). The correct insertion of the transposon to each Staph mutant had been verified (Golla, et al. (2020) ACS Infect. Dis., 6:1866-1881). Antimicrobial susceptibility to the new peptide C10-KR8d was evaluated in the same manner as MIC assays. Susceptible strains could be inhibited at a peptide concentration lower than the MIC against the wild strain S. aureus JE2.

[3] = tested on: S. aureus USA300 transposon mutant SAUSA300_1097 (pyrF); assay: Antimicrobial susceptibility of transposon mutant; parameters: key: No = no MIC changes of C10-KR8d against the WT and the mutant S. aureus strains measured in 50% TSB; settings: mutant SAUSA300_1097 pyrF versus WT
Description: as §2

[4] = tested on: S. aureus USA300 transposon mutant SAUSA300_1336; assay: Antimicrobial susceptibility of transposon mutant; parameters: key: No = no MIC changes of C10-KR8d against the WT and the mutant S. aureus strains measured in 50% TSB; settings: mutant SAUSA300_1336 versus WT
Description: as §2

[5] = tested on: S. aureus USA300 transposon mutant SAUSA300_1967; assay: Antimicrobial susceptibility of transposon mutant; parameters: key: No = no MIC changes of C10-KR8d against the WT and the mutant S. aureus strains measured in 50% TSB; settings: mutant SAUSA300_1967 versus WT
Description: as §2

[6] = tested on: S. aureus USA300 transposon mutant SAUSA300_0186 (argC); assay: Antimicrobial susceptibility of transposon mutant; parameters: key: No = no MIC changes of C10-KR8d against the WT and the mutant S. aureus strains measured in 50% TSB; settings: mutant SAUSA300_0186 argC versus WT
Description: as §2

[7] = tested on: S. aureus USA300 transposon mutant SAUSA300_0829 (lipA); assay: Antimicrobial susceptibility of transposon mutant; parameters: key: No = no MIC changes of C10-KR8d against the WT and the mutant S. aureus strains measured in 50% TSB; settings: mutant SAUSA300_0829 lipA versus WT
Description: as §2

[8] = tested on: S. aureus USA300 transposon mutant SAUSA300_1867; assay: Antimicrobial susceptibility of transposon mutant; parameters: key: No = no MIC changes of C10-KR8d against the WT and the mutant S. aureus strains measured in 50% TSB; settings: mutant SAUSA300_1867 versus WT
Description: as §2

Structure (SMILES) | MIC against clinical strains of S. aureus [1] [µM] | MIC (μM) PA (P. aeruginosa PAO1) [µM] | membrane depolarization ability (order) (S. aureus USA300) | Susceptible? [2] | Susceptible? [3] | Susceptible? [4] | Susceptible? [5] | Susceptible? [6] | Susceptible? [7] | Susceptible? [8]
CCCCCCCCCC(=O)N[C@@H](CCCCN)C(=O)N[C@@H](CCCNC(=N)N)C(=O)N[C@H](C(=O)N[C@@H](Cc1c[nH]c2ccccc12)C(=O)N[C@@H](CCC(N)=O)C(=O)N[C@@H](CCCNC(=N)N)C(=O)N[C@H](C(=O)N[C@@H](CCCCN)C(N)=O)[C@@H](C)CC)[C@@H](C)CC [Peptide C10-KR8] (Decanoyl-KRIWQRIK-NH2) | 1.6 to 6.2 | 6.2 (≈ 7.94 µg/mL) | – | – | – | – | – | – | – | –
CCCCCCCCCC(=O)N[C@H](CCCCN)C(=O)N[C@H](CCCNC(=N)N)C(=O)N[C@@H](C(=O)N[C@H](Cc1c[nH]c2ccccc12)C(=O)N[C@H](CCC(N)=O)C(=O)N[C@H](CCCNC(=N)N)C(=O)N[C@@H](C(=O)N[C@H](CCCCN)C(N)=O)[C@H](C)CC)[C@H](C)CC [Peptide C10-KR8d] (Decanoyl-[dK][dR][dI][dW][dQ][dR][dI][dK]-NH2) | – | – | Triton™ X-100>17BIPHE2>C10-KR8d>daptomycin | No | No | No | No | No | No | No

Source: patent US20240294572A1, “Antimicrobial Peptides” (priority 2021, published 2024)
